In patent US20210023233A1, “ANTIBODY-PEPTIDE COMPLEXES AND USES THEREOF” (priority 2018, published 2021):

System: CD20+ Daudi human lymphoma cells
Test: Toxicity of cisplatin-loaded peptide: Daudi cell proliferation/survival after overnight treatment
Format: cell-based
Details: treated overnight, 100 μg/ml
Description: FIG. 4 is a graph plotting the toxicity of cisplatin-loaded peptide. CD20+ Daudi human lymphoma cells were treated overnight with 100 μg/ml ABRAXANE® (ABX), 100 μg/ml cisplatin (CIS), 1 mg/ml rituximab (RIT), 1 mg/ml peptide only (PEP), 100 μg/ml peptide-loaded cisplatin (PEP+CIS), peptide with rituximab (PEP+RIT), or 100 μg/ml peptide-loaded cisplatin with rituximab (PEP+CIS+RIT).
CD20+ Daudi human lymphoma cells were treated overnight with 100 μg/ml ABRAXANE® (ABX), 100 μg/ml cisplatin (CIS), 1 mg/ml rituximab (RIT), 1 mg/ml peptide (SEQ ID NO:2) only (PEP), 100 μg/ml peptide-loaded cisplatin (PEP+CIS), peptide with rituximab (PEP+RIT), or 100 μg/ml peptide-loaded cisplatin with rituximab (PEP+CIS+RIT), and cell survival was assessed (FIG. 4).

Row | Compound | Toxicity to Daudi cells compared with cisplatin-containing peptide (in words) | Daudi proliferation, % of the total (control) proliferation [%]
1 | N.N.[Cl][Pt][Cl] [cisplatin] | equivalent | 
2 | PEP+CIS (VVLCQLCVLHEKTPVSDR) |  | 80
